Values quoted from earlier work, collected in US12409121B2, “Formulations and methods for preparing stable cosmetic compositions” (Spinart, LLC, priority 2019, dated 2025).

Structure (SMILES): N=C(N)NCCCC(N)C(=O)O (centres unmarked) [Arginine]
- α-CO2H pKa1 (carboxylic group): 2.18
- α-NH3 pKa2 (α-amino group): 9.09
